Each structure is given as a SMILES string. pIC50: −log10 of the molar value.

One assay deals with T1, VLA-4 (Homo sapiens, UniProt P05556+P13612).
T1 construct: host or cells: Jurkat clone E6-1
T1 sequence (P13612 34-1032): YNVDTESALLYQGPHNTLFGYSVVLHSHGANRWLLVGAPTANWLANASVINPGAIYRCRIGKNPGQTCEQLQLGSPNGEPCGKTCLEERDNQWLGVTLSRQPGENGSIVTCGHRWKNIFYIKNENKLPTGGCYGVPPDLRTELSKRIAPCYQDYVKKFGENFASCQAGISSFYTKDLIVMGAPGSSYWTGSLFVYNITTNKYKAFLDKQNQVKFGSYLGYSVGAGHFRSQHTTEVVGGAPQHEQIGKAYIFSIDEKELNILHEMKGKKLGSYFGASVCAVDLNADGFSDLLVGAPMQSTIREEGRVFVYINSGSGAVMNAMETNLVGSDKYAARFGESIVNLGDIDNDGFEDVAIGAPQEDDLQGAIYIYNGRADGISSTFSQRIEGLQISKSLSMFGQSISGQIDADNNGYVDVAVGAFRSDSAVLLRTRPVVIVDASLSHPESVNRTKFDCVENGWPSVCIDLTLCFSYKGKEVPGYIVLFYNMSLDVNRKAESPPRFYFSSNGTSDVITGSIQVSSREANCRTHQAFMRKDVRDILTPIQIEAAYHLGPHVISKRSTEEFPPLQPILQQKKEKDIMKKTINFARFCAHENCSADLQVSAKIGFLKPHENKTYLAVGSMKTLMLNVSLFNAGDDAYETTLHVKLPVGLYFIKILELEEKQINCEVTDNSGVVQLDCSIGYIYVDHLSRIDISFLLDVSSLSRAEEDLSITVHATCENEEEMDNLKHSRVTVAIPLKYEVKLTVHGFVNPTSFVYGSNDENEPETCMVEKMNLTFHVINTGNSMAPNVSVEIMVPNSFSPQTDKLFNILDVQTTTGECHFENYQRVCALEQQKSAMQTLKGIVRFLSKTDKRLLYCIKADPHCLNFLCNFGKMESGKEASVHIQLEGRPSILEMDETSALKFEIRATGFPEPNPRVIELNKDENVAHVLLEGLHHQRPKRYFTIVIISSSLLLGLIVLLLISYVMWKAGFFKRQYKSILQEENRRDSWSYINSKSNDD
T1 sequence (P05556 21-798): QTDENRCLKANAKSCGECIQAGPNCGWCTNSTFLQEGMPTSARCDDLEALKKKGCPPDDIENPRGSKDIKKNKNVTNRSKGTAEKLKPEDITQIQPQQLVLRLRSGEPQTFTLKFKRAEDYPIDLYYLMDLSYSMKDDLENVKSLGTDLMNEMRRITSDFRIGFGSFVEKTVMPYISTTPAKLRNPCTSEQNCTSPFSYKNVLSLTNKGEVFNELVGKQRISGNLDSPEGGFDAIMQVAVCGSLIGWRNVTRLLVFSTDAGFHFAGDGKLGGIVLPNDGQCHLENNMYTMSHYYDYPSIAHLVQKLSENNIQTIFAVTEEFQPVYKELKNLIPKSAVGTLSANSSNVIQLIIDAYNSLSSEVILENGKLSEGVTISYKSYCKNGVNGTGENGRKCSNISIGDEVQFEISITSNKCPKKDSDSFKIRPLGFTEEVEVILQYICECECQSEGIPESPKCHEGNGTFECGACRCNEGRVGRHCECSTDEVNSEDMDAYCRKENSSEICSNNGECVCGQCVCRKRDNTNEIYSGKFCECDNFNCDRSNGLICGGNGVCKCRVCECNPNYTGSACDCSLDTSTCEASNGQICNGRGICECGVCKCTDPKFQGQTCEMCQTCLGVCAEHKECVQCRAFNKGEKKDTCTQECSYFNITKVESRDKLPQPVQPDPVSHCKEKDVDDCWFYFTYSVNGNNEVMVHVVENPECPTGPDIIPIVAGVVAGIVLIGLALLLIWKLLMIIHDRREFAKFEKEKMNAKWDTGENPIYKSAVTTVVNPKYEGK
Description: Adhesion of Jurkat cells to immobilized VCAM-1 (domains 1-3). The class given is cell-based. More on the design: scale not given here. Conditions: adhesion of CFSE-labeled Jurkat cells to recombinant human VCAM-1 (domains 1-3) coated plates; compounds as yielded by solid phase synthesis, purity about 40-90%. On the procedure: In Vitro Assay: Adhesion of Jurkat Cells to Immobilized VCAM-1 (Domains 1-3).
Preparation of Fluorescence Labeled Jurkat Cells:
Jurkat cells (American Type Culture Collection, Clone E6-1, ATCC TIB-152) were cultured in RPMI 1640 medium (Nikken Bio Medical Laboratory, CM1101) supplemented with 10% fetal bovine serum (Hyclone, A-1119-L), 100 U/ml penicilin (Gibco BRL, 15140-122) and 100 μg/ml streptomycin (Gibco BRL, 15140-122) in a humidified incubator at 37° C. with 5% CO2.
Jurkat cells were incubated with phosphate balanced solution (PBS, Nissui, 05913) containing 25 μM of 5(-and-6)-carboxyfluorescein diacetate, succinimidyle ester (CFSE, Dojindo Laboratories, 345-06441) for 20 min at room temperature while gently swirling every 5 min. After centrifugation at 1000 rpm for 5 min, the cell pellet was resuspended with adhesion assay buffer at a cell density of 2×10^6 cells/ml. The adhesion assay buffer was composed of 24 mM Tris-HCl (pH 7.4), 137 mM NaCl, 27 mM KCl, 4 mM glucose, 0.1% bovine serum albumin (BSA, Sigma, A9647) and 2 mM MnCl2.
Preparation of VCAM-1 (Extracellular Domains 1-3):
Complementary DNA (cDNA) encoding 7-domain form of VCAM-1 (GenBank accession #M60335) was obtained using Rapid-Screen™ cDNA library panels (OriGene Technologies, Inc) at Takara Gene Analysis Center (Shiga, Japan). The primers used were 5′-CCAAGGCAGAGTACGCAAAC-3′ (sence) and 5′-TGGCAGGTATTATTAAGGAG-3′ (antisense). PCR amplification of the 3-domain VCAM-1 cDNA was perform using Pfu DNA polymerase (Stratagene) with the following sets of primers: (U-VCAMd1-3) 5′-CCATATGGTACCTGATCAATTTAAAATCGAGACCACCCCAGAA-3′; (L-VCAMd1-3) 5′-CCATATAGCAATCCTAGGTCCAGGGGAGATCTCAACAGTAAA-3′. PCR cycle was 94° C. for 45 sec, 55° C. for 45 sec, 72° C. for 2 min, repeating 15 cycles. After the purification of the PCR product, the fragment was digested with KpnI-AvrII. The digested fragment was ligated into pBluescript IISK(−) (Strategene), which was linealized by digesting with KpnI-XhoI. The ligation was followed by transformation to a Dam/Dcm methylase-free E. coli strain SCS110 (Strategene) to create the donor plasmid pH7. To direct VCAM-1 molecule into the insect cell secretory pathway, the VCAM-1 coding sequence was fused to signal peptide sequence of honeybee melittin. The resulting melittin-VCAM fusion was placed in correct orientation to the baculoviris polyhedrin promoter. Baculovirus transfer vector containing first 3-domain form VCAM-1 (pH10) was constructed by ligation of 0.9 kb fragment from AvrII/Klenow/BclI digests of pH7 into SalI/Klenow/BamHI digests of pMelBacB (Invitrogen). Recombinant baculovirus was generated by using Bac-N-Blue™ Transfection kit (Invitrogen) according to the manufacture's instruction. The recombinant virus was amplified by infection to High-Five™ insect cells for 5-6 days, and virus titer was determined by plaque assay.
High-Five™ insect cells were pelleted in a 225 ml conical tube by centrifugation at 1000 rpm for 5 min After discarding the supernatant, the pellet was resuspended in 1.5×10^9 pfu (MOI=5) of high-titer virus solution, followed by incubation for 1.5 hours at room temperature. The cells were pelleted again and washed once in fresh Express Five™ serum free medium. The cells were pelleted again and finally, resuspended in 200 ml of fresh Express Five™ medium, transferred to a 1,000 ml shaker flask, and incubated in a shaker at 27° C., 130 rpm, for 48 hours before the culture supernatant was collected. The purification of 3-domain form of VCAM-1 from the culture supernatant was performed by one-step anion exchange chromatography. Protein concentration was determined by using Coomassie protein assay reagent (Pierce) according to the manufacture's instruction.
Preparation of Microtiter Plates:
Recombinant human VCAM-1 (extracellular domains 1-3) was dissolved at 0.5 μg/ml in PBS. […]
For `Cc1ccc(-c2ccc(C[C@H](NC(=O)C3CCCN(C(=O)Cc4c(Cl)cc(Cl)cc4Cl)C3)C(=O)O)cc2)cc1` (stereo partly shown) [Example 1.22], the IC50 result is “C-D”.

For `Cc1ccccc1-c1ccc(C[C@H](NC(=O)C2CCCN(c3ncnc(NC4Cc5ccccc5C4)c3F)C2)C(=O)O)cc1` (stereo partly shown) [Example 2.31], the IC50 result is reported as “C-D”.

`COc1ccccc1-c1ccc(C[C@H](NC(=O)C2CCCN(c3ncnc(NC4Cc5ccccc5C4)c3F)C2)C(=O)O)cc1` (stereo partly shown) [Example 2.56]: the IC50 result is recorded as “B-C”.

In the case of `O=C(N[C@@H](Cc1ccc(-c2cc(Cl)ccc2Cl)cc1)C(=O)O)C1CCCN(S(=O)(=O)c2cc(Cl)cc(Cl)c2)C1` (stereo partly shown) [Example 1.111], the IC50 entry was “C-D”.

In the case of `Cc1cc(Cl)c(CC(=O)N2CCCC(C(=O)N[C@@H](Cc3ccc(-c4ccccc4C)cc3)C(=O)O)C2)c(Cl)c1` (stereo partly shown) [Example 1.35], the IC50 result is “C-D”.

Turning to `COc1ccc(-c2ccc(C[C@H](NC(=O)C3CCCN(S(=O)(=O)c4ccc(C)cc4)C3)C(=O)O)cc2)cc1` (stereo partly shown) [Example 1.76], the IC50 entry is reported as “C-D”.

On to `COc1ccccc1-c1ccc(C[C@H](NC(=O)C2CCCN(c3ncnc(N4CCCCC4)c3F)C2)C(=O)O)cc1` (stereo partly shown) [Example 2.52], for which the IC50 result is reported as “C-D”.

With `O=C(N[C@@H](Cc1ccc(-c2ccc(Cl)c(Cl)c2)cc1)C(=O)O)C1CCCN(c2ncnc(N3CCCCC3)c2F)C1` (stereo partly shown) [Example 2.43], the IC50 entry is recorded as “C-D”.

As for `O=C(N[C@@H](Cc1ccc(-c2ccccc2)cc1)C(=O)O)C1CCCN(C(=O)c2ccc3c(c2)OCO3)C1` (stereo partly shown) [Example 1.10], the IC50 entry is reported as “C-D”.

For `O=C(N[C@@H](Cc1ccc(-c2ccc(Cl)c(Cl)c2)cc1)C(=O)O)C1CCCN(c2ncnc(N3CCOCC3)c2F)C1` (stereo partly shown) [Example 2.44], the IC50 entry is listed as “C-D”.

In the case of `O=C(N[C@@H](Cc1ccc(-c2cc(Cl)ccc2Cl)cc1)C(=O)O)C1CCCN(C(=O)Cc2ccccc2)C1` (stereo partly shown) [Example 1.49], the IC50 result is “C-D”.

Regarding `COc1ccc(-c2ccc(C[C@H](NC(=O)C3CCCN(c4ncnc(NC5CCCCC5)c4F)C3)C(=O)O)cc2)cc1` (stereo partly shown) [Example 2.15], the IC50 entry was “C-D”.

As to `Cc1ccccc1-c1ccc(C[C@H](NC(=O)C2CCCN(S(=O)(=O)c3ccccc3C(F)(F)F)C2)C(=O)O)cc1` (stereo partly shown) [Example 1.89], the IC50 result is “C-D”.

Regarding `COc1ccc(-c2ccc(C[C@H](NC(=O)C3CCCN(C(=O)Oc4c(C)cc(C)cc4C)C3)C(=O)O)cc2)cc1` (stereo partly shown) [Example 1.28], the IC50 result is “C-D”.

For `O=C(N[C@@H](Cc1ccc(-c2ccccc2)cc1)C(=O)O)C1CCCN(S(=O)(=O)c2ccccc2C(F)(F)F)C1` (stereo partly shown) [Example 1.61], the IC50 entry was “C-D”.

Regarding `COc1ccc(-c2ccc(C[C@H](NC(=O)C3CCCN(C(=O)OC4CCCC4)C3)C(=O)O)cc2)cc1` (stereo partly shown) [Example 1.29], the IC50 result was “C-D”.

As for `O=C(N[C@@H](Cc1ccc(-c2cc(Cl)ccc2Cl)cc1)C(=O)O)C1CCCN(C(=O)c2ccc3c(c2)OCO3)C1` (stereo partly shown) [Example 1.52], the IC50 entry is “C-D”.

On to `COc1ccc(-c2ccc(C[C@H](NC(=O)C3CCCN(C(=O)Cc4c(Cl)cc(C)cc4Cl)C3)C(=O)O)cc2)cc1` (stereo partly shown) [Example 1.25], for which the IC50 result is “C-D”.

On to `O=C(N[C@@H](Cc1ccc(-c2ccc(Cl)cc2Cl)cc1)C(=O)O)C1CCCN(S(=O)(=O)c2ccc3ccccc3c2)C1` (stereo partly shown) [Example 1.96], for which the IC50 entry is given as “C-D”.

The same assay, now with this note: adhesion of CFSE-labeled Jurkat cells to recombinant human VCAM-1 (domains 1-3) coated plates; compounds as yielded by solid phase synthesis, purity about 40-90%; read-out: IC50.
Usually pIC50 stands for the negative decadic logarithm of the IC50, by convention in mol/L. For `COc1ccccc1-c1ccc(C[C@H](NC(=O)C2CCCN(c3ncnc(N4CCNCC4)c3F)C2)C(=O)O)cc1` (stereo partly shown) [Example 2.54], the pIC50 is at least 6.30.

`O=C(N[C@H](Cc1ccc(NC(=O)N2CCc3ccccc3C2)cc1)C(=O)O)C1CCCN(C(=O)c2ccc(OC(F)(F)F)cc2)C1` (stereo partly shown) [Example 4.20]: the pIC50 was 5.00 to 5.70.

Consider `COc1ccccc1-c1ccc(C[C@H](NC(=O)C2CCCN(c3ncnc(NC4CCN(Cc5ccccc5)CC4)c3F)C2)C(=O)O)cc1` (stereo partly shown) [Example 5.2], for which the pIC50 is 5.00 to 5.70.

Regarding `COc1ccccc1C(=O)N1CCCC(C(=O)N[C@@H](Cc2ccc(-c3ccccc3C)cc2)C(=O)O)C1` (stereo partly shown) [Example 1.37], the pIC50 is 5.70 to 6.30.

Take `O=C(N[C@@H](Cc1ccc(-c2cc(Cl)ccc2Cl)cc1)C(=O)O)C1CCCN(c2ncnc(NCCN3CCCC3)c2F)C1` (stereo partly shown) [Example 2.39]: the pIC50 was 5.70 to 6.30.

For `O=C(N[C@@H](Cc1ccc(NC(=O)N2CCc3ccccc3C2)cc1)C(=O)O)C1CCCN(S(=O)(=O)c2cccs2)C1` (stereo partly shown) [Example 4.33], the negative logarithm of the IC50 (pIC50) is at least 6.30.

In the case of `O=C(NCC(c1ccccc1)c1ccccc1)Nc1ccc(C[C@H](NC(=O)C2CCCN(C(=O)c3ccccc3F)C2)C(=O)O)cc1` (stereo partly shown) [Example 4.56], the pIC50 is 5.70 to 6.30.

As for `COc1ccccc1C(=O)N1CCCC(C(=O)N[C@@H](Cc2ccc(NC(=O)N3CCc4ccccc4C3)cc2)C(=O)O)C1` (stereo partly shown) [Example 4.27], the negative-log IC50 (pIC50) was at least 6.30.

Consider `COc1ccccc1-c1ccc(C[C@H](NC(=O)C2CCCN(c3ncnc(N4CCOCC4)c3F)C2)C(=O)O)cc1` (stereo partly shown) [Example 2.53], for which the pIC50 was 5.00 to 5.70.

`O=C(N[C@@H](Cc1ccc(NC(=O)N2CCOCC2)cc1)C(=O)O)C1CCCN(c2ncnc(NCc3cccnc3)c2F)C1` (stereo partly shown) [Example 5.28]: the pIC50 was 5.70 to 6.30.

On to `CN(c1ncnc(N2CCCC(C(=O)N[C@@H](Cc3ccc(NC(=O)N4CCOCC4)cc3)C(=O)O)C2)c1F)C1CCCCC1` (stereo partly shown) [Example 5.36], for which the pIC50 was 5.70 to 6.30.

In the case of `O=C(N[C@@H](Cc1ccc(NC(=O)N2CCOCC2)cc1)C(=O)O)C1CCCN(c2ncnc(N3CCCC3)c2F)C1` (stereo partly shown) [Example 5.9], the pIC50 was 5.00 to 5.70.

For `O=C(N[C@@H](Cc1ccc(NC(=O)N2CCOCC2)cc1)C(=O)O)C1CCCN(c2ncnc(NC3CCN(Cc4ccccc4)CC3)c2F)C1` (stereo partly shown) [Example 5.22], the pIC50 is 5.00 to 5.70.

For the compound `O=C(N[C@@H](Cc1ccc(NC(=O)N2CCOCC2)cc1)C(=O)O)C1CCCN(c2ncnc(NCc3ccccc3)c2F)C1` (stereo partly shown) [Example 5.8], the pIC50 is 5.70 to 6.30.

Turning to `CN1CCN(C(=O)Nc2ccc(C[C@H](NC(=O)C3CCCN(S(C)(=O)=O)C3)C(=O)O)cc2)CC1` (stereo partly shown) [Example 4.5], the pIC50 is 5.70 to 6.30.

Take `Cc1ccc(-c2ccc(C[C@H](NC(=O)C3CCCN(c4ncnc(NCc5ccccn5)c4F)C3)C(=O)O)cc2)cc1` (stereo partly shown) [Example 2.4]: the pIC50 is 5.00 to 5.70.

As to `COc1ccc(S(=O)(=O)N2CCCC(C(=O)N[C@@H](Cc3ccc(NC(=O)N4CCN(C)CC4)cc3)C(=O)O)C2)cc1OC` (stereo partly shown) [Example 4.6], the pIC50 was at least 6.30.

As to `Cc1ccc(S(=O)(=O)N2CCCC(C(=O)N[C@@H](Cc3ccc(NC(=O)NC4CCN(Cc5ccccc5)CC4)cc3)C(=O)O)C2)cc1` (stereo partly shown) [Example 4.32], the pIC50 is 5.00 to 5.70.

Take `COc1ccc(S(=O)(=O)N2CCCC(C(=O)N[C@@H](Cc3ccc(NC(=O)N4CCN(C(c5ccccc5)c5ccccc5)CC4)cc3)C(=O)O)C2)cc1OC` (stereo partly shown) [Example 4.45]: the pIC50 is 5.70 to 6.30.

Consider `COc1ccccc1C(=O)N1CCCC(C(=O)N[C@@H](Cc2ccc(NC(=O)N3CCCCC3)cc2)C(=O)O)C1` (stereo partly shown) [Example 4.12], for which the pIC50 was at least 6.30.

For the compound `CN1CCN(C(=O)Nc2ccc(C[C@H](NC(=O)C3CCCN(S(=O)(=O)c4ccc5ccccc5c4)C3)C(=O)O)cc2)CC1` (stereo partly shown) [Example 4.16], the pIC50 is at least 6.30.
